ChEMBL document CHEMBL1127356, “(Fluorocyclopropyl)quinolones. 2. Synthesis and Stereochemical structure-activity relationships of chiral 7-(7-amino-5-azaspiro[2.4]heptan-5-yl)-1-(2-fluorocyclopropyl)quinolone antibacterial agents” (J Med Chem, 1994)
≈ marks a conversion by molar mass, not a printed value.

Legend:
Enterobacter cloacae [1] = assay: Minimum inhibitory concentration in vitro against Enterobacter cloacae (03400); type: functional
Escherichia coli = assay: Minimum inhibitory concentration in vitro against Escherichia coli (NIHJ); type: functional
Klebsiella pneumoniae = assay: Minimum inhibitory concentration in vitro against Klebsiella pneumoniae (type-2); type: functional
Pseudomonas aeruginosa = assay: Minimum inhibitory concentration in vitro against Pseudomonas aeruginosa (32104); type: functional
Proteus vulgaris = assay: Minimum inhibitory concentration in vitro against Proteus vulgaris (08601); type: functional
Staphylococcus aureus [2] = assay: Minimum inhibitory concentration in vitro against […] (209P); type: functional
Streptococcus pyogenes = assay: Minimum inhibitory concentration in vitro against Streptococcus pyogenes (G36); type: functional
[3] = system: Staphylococcus epidermidis; assay: Minimum inhibitory concentration in vitro against […] (56556); type: functional
Serratia marcescens = assay: Minimum inhibitory concentration in vitro against […]; type: functional
Enterococcus faecalis = assay: Minimum inhibitory concentration in vitro against Streptococcus faecalis (ATCC 19433); type: functional
[4] = Maximum concentration in plasma was determined by oral administration to rats at 20 mg/kg; type: ADME, organism-based; design: dose 20 mg/kg, route oral; conditions: rat
[5] = Urinary recovery at 20 mg/kg was determined by oral administration to rats in unchanged form of compound; type: ADME, organism-based; design: dose 20 mg/kg, route oral; conditions: rat, urine, read-out: Urinary recovery
Rattus norvegicus [6] = assay: Urinary recovery by oral administration to rats at 20 mg/kg in conjugate form of compound; type: ADME, organism-based, Urine; design: dose 20 mg/kg, route oral; conditions: in vivo
Staphylococcus aureus [7] = assay: Minimum inhibitory concentration in vitro against Staphylococcus aureus (209P); type: functional
[8] = system: Staphylococcus epidermidis; assay: Minimum inhibitory concentration in vitro against Staphylococcus epidermis (56556); type: functional
Rattus norvegicus [9] = assay: Urinary recovery by oral administration to rats in conjugate form of compound at 20 mg/kg; type: ADME, organism-based, Urine; design: dose 20 mg/kg, route oral; conditions: in vivo
[10] = Urinary recovery by oral administration to rats in unchanged form of compound at 20 mg/kg; type: ADME, organism-based; design: dose 20 mg/kg, route oral; conditions: rat, urine, read-out: Urinary recovery
Staphylococcus aureus [11] = assay: microbe, parasite or virus in culture
Description: Minimum inhibitory concentration against Streptococcus aureus (209P)

Enterobacter cloacae [12] = assay: Minimum inhibitory concentration in vitro against […] (03400); type: functional
[13] = Enterobacter cloacae, read-out: MIC
[14] = Escherichia coli, read-out: MIC
[15] = Klebsiella pneumoniae, read-out: MIC
[16] = Pseudomonas aeruginosa, read-out: MIC
[17] = Proteus vulgaris, read-out: MIC
[18] = Staphylococcus aureus, read-out: MIC
[19] = Streptococcus pyogenes, read-out: MIC
[20] = Staphylococcus epidermidis, read-out: MIC
[21] = Serratia marcescens, read-out: MIC
[22] = Enterococcus faecalis, ATCC 19433, read-out: MIC

SMILES	MIC (Enterobacter cloacae [1]; [13]) [µg/mL]	MIC (Escherichia coli; [14]) [µg/mL]	MIC (Klebsiella pneumoniae; [15]) [µg/mL]	MIC (Pseudomonas aeruginosa; [16]) [µg/mL]	MIC (Proteus vulgaris; [17]) [µg/mL]	MIC (Staphylococcus aureus [2]; [18]) [µg/mL]	MIC (Streptococcus pyogenes; [19]) [µg/mL]	MIC [3, 20] [µg/mL]	MIC (Serratia marcescens; [21]) [µg/mL]	MIC (Enterococcus faecalis; [22]) [µg/mL]	MIC (Klebsiella pneumoniae) [µg/mL]	other results
N[C@H]1CN(c2c(F)cc3c(=O)c(C(=O)O)cn(C4C[C@@H]4F)c3c2Cl)CC12CC2 (single isomer, unassigned)	0.025 (≈ 0.061 µM)	0.025 (≈ 0.061 µM)	0.05 (≈ 0.122 µM)	0.39 (≈ 0.952 µM)	0.025 (≈ 0.061 µM)	0.1 (≈ 0.244 µM)	0.1 (≈ 0.244 µM)	0.1 (≈ 0.244 µM)	0.1 (≈ 0.244 µM)	0.78 (≈ 1.9 µM)		
N[C@@H]1CN(c2c(F)cc3c(=O)c(C(=O)O)cn(C4CC4F)c3c2Cl)CC12CC2 (stereo in doubt; 37)											0.05 (≈ 0.122 µM)	MIC (Enterobacter cloacae [1]): 0.013 µg/mL (≈ 0.0317 µM); MIC (Escherichia coli): 0.006 µg/mL (≈ 0.0146 µM); MIC (Pseudomonas aeruginosa): 0.39 µg/mL (≈ 0.952 µM); MIC (Proteus vulgaris): 0.025 µg/mL (≈ 0.061 µM); MIC (Staphylococcus aureus [2]): 0.1 µg/mL (≈ 0.244 µM); MIC (Streptococcus pyogenes): 0.39 µg/mL (≈ 0.952 µM); MIC [3]: 0.1 µg/mL (≈ 0.244 µM); MIC (Serratia marcescens): 0.1 µg/mL (≈ 0.244 µM); MIC (Enterococcus faecalis): 0.78 µg/mL (≈ 1.9 µM)
N[C@@H]1CN(c2c(F)cc3c(=O)c(C(=O)O)cn(C4C[C@H]4F)c3c2Cl)CC12CC2 (single isomer, unassigned)	0.013 (≈ 0.0317 µM)	0.013 (≈ 0.0317 µM)	0.025 (≈ 0.061 µM)	0.2 (≈ 0.488 µM)	0.013 (≈ 0.0317 µM)	0.025 (≈ 0.061 µM)	0.2 (≈ 0.488 µM)	0.05 (≈ 0.122 µM)	0.05 (≈ 0.122 µM)	0.2 (≈ 0.488 µM)		
N[C@H]1CCN(c2c(F)cc3c(=O)c(C(=O)O)cn([C@H]4C[C@H]4F)c3c2Cl)C1	0.025 (≈ 0.0651 µM)	0.013 (≈ 0.0339 µM)		0.1 (≈ 0.261 µM)	0.013 (≈ 0.0339 µM)	0.025 (≈ 0.0651 µM)	0.2 (≈ 0.521 µM)	0.05 (≈ 0.13 µM)	0.05 (≈ 0.13 µM)	0.2 (≈ 0.521 µM)	0.05 (≈ 0.13 µM)	
NC1CCN(c2c(F)cc3c(=O)c(C(=O)O)cn([C@@H]4C[C@@H]4F)c3c2Cl)C1 (single isomer, unassigned)	0.006 (≈ 0.0156 µM)	0.006 (≈ 0.0156 µM)	0.05 (≈ 0.13 µM)	0.05 (≈ 0.13 µM)	0.006 (≈ 0.0156 µM)		0.1 (≈ 0.261 µM)		0.025 (≈ 0.0651 µM)	0.2 (≈ 0.521 µM)		Cmax [4]: 2000 ng/mL; dose excreted [5]: 12%; Urinary recovery (Rattus norvegicus [6]): 4%; MIC (Staphylococcus aureus [7]): 0.013 µg/mL (≈ 0.0339 µM); MIC [8]: 0.05 µg/mL (≈ 0.13 µM)
N[C@H]1CN(c2c(F)cc3c(=O)c(C(=O)O)cn(C4CC4)c3c2Cl)CC12CC2	0.006 (≈ 0.0153 µM)	< 0.006	0.025 (≈ 0.0638 µM)	0.05 (≈ 0.128 µM)	0.006 (≈ 0.0153 µM)	0.013 (≈ 0.0332 µM)	0.1 (≈ 0.255 µM)	0.025 (≈ 0.0638 µM)	0.025 (≈ 0.0638 µM)	0.1 (≈ 0.255 µM)		Cmax [4]: 3400 ng/mL; Urinary recovery (Rattus norvegicus [9]): 7%; dose excreted [10]: 7%
N[C@@H]1CN(c2c(F)cc3c(=O)c(C(=O)O)cn(C4CC4)c3c2Cl)CC12CC2	0.05 (≈ 0.128 µM)	0.05 (≈ 0.128 µM)	0.05 (≈ 0.128 µM)	0.39 (≈ 0.995 µM)	0.05 (≈ 0.128 µM)	0.1 (≈ 0.255 µM)	0.78 (≈ 1.99 µM)	0.1 (≈ 0.255 µM)	0.1 (≈ 0.255 µM)	0.39 (≈ 0.995 µM)		
NC1CN(c2c(F)cc3c(=O)c(C(=O)O)cn([C@@H]4C[C@@H]4F)c3c2Cl)CC12CC2 (single isomer, unassigned) [SITAFLOXACIN ANHYDROUS]	0.006 (≈ 0.0146 µM)	< 0.006	0.025 (≈ 0.061 µM)	0.05 (≈ 0.122 µM)	0.006 (≈ 0.0146 µM)	0.013 (≈ 0.0317 µM)	0.05 (≈ 0.122 µM)	0.025 (≈ 0.061 µM)	0.025 (≈ 0.061 µM)	0.1 (≈ 0.244 µM)		Cmax [4]: 2600 ng/mL; Urinary recovery (Rattus norvegicus [9]): 1%; dose excreted [10]: 22%
N[C@H]1CN(c2c(F)cc3c(=O)c(C(=O)O)cn(C4CC4F)c3c2Cl)CC12CC2 (stereo in doubt; 40)							> 12.5		0.78 (≈ 1.9 µM)	> 12.5	1.56 (≈ 3.81 µM)	MIC (Enterobacter cloacae [1]): 0.78 µg/mL (≈ 1.9 µM); MIC (Escherichia coli): 0.39 µg/mL (≈ 0.952 µM); MIC (Pseudomonas aeruginosa): 6.25 µg/mL (≈ 15.3 µM); MIC (Proteus vulgaris): 0.39 µg/mL (≈ 0.952 µM); MIC (Staphylococcus aureus [2]): 3.13 µg/mL (≈ 7.64 µM); MIC [3]: 3.13 µg/mL (≈ 7.64 µM)
N[C@@H]1CN(c2c(F)cc3c(=O)c(C(=O)O)cn(C4CC4F)c3c2Cl)CC12CC2 (stereo in doubt; 38)									0.2 (≈ 0.488 µM)		0.2 (≈ 0.488 µM)	MIC (Enterobacter cloacae [1]): 0.2 µg/mL (≈ 0.488 µM); MIC (Escherichia coli): 0.05 µg/mL (≈ 0.122 µM); MIC (Pseudomonas aeruginosa): 1.56 µg/mL (≈ 3.81 µM); MIC (Proteus vulgaris): 0.1 µg/mL (≈ 0.244 µM); MIC (Staphylococcus aureus [2]): 0.78 µg/mL (≈ 1.9 µM); MIC (Streptococcus pyogenes): 3.13 µg/mL (≈ 7.64 µM); MIC [3]: 0.78 µg/mL (≈ 1.9 µM); MIC (Enterococcus faecalis): 3.13 µg/mL (≈ 7.64 µM)
O=C(O)c1cn(C2CC2)c2cc(N3CCNCC3)c(F)cc2c1=O [CIPROFLOXACIN]			0.05 (≈ 0.151 µM)	0.1 (≈ 0.302 µM)	0.013 (≈ 0.0392 µM)		1.56 (≈ 4.71 µM)	0.2 (≈ 0.604 µM)	0.05 (≈ 0.151 µM)	1.56 (≈ 4.71 µM)		MIC (Staphylococcus aureus [11]): 0.1 µg/mL (≈ 0.302 µM)
N[C@@H]1CCN(c2c(F)cc3c(=O)c(C(=O)O)cn(C4CC4)c3c2Cl)C1		< 0.006	0.025 (≈ 0.0683 µM)	0.05 (≈ 0.137 µM)	0.006 (≈ 0.0164 µM)	0.025 (≈ 0.0683 µM)	0.1 (≈ 0.273 µM)	0.05 (≈ 0.137 µM)	0.025 (≈ 0.0683 µM)	0.1 (≈ 0.273 µM)		Cmax [4]: 3900 ng/mL; Urinary recovery (Rattus norvegicus [9]): 5%; dose excreted [10]: 24%; MIC (Enterobacter cloacae [12]): 0.006 µg/mL (≈ 0.0164 µM)
N[C@H]1CN(c2c(F)cc3c(=O)c(C(=O)O)cn(C4CC4F)c3c2Cl)CC12CC2 (stereo in doubt; 39)											0.39 (≈ 0.952 µM)	MIC (Enterobacter cloacae [1]): 0.1 µg/mL (≈ 0.244 µM); MIC (Escherichia coli): 0.05 µg/mL (≈ 0.122 µM); MIC (Pseudomonas aeruginosa): 1.56 µg/mL (≈ 3.81 µM); MIC (Proteus vulgaris): 0.1 µg/mL (≈ 0.244 µM); MIC (Staphylococcus aureus [2]): 0.78 µg/mL (≈ 1.9 µM); MIC [3]: 0.78 µg/mL (≈ 1.9 µM); MIC (Serratia marcescens): 0.39 µg/mL (≈ 0.952 µM); MIC (Enterococcus faecalis): 6.25 µg/mL (≈ 15.3 µM)
N[C@H]1CN(c2c(F)cc3c(=O)c(C(=O)O)cn(C4C[C@H]4F)c3c2Cl)CC12CC2 (single isomer, unassigned)	0.05 (≈ 0.122 µM)	0.05 (≈ 0.122 µM)	0.1 (≈ 0.244 µM)	0.78 (≈ 1.9 µM)	0.05 (≈ 0.122 µM)	0.1 (≈ 0.244 µM)	0.2 (≈ 0.488 µM)	0.2 (≈ 0.488 µM)	0.5 (≈ 1.22 µM)	0.39 (≈ 0.952 µM)		
